Results from US9464060B2, “Compounds” (TAKEDA PHARMACEUTICAL COMPANY LIMITED, priority 2013, dated 2016).

How the values were obtained:
[1] = molecular target: LPA5 receptor (Homo sapiens (Human), UniProt Q9H1C0); assay: In vitro LPA5 receptor assay (LPA-driven intracellular calcium release, FLIPR); format: cell-based; conditions: RH7777 cells expressing human LPA5 receptors; LPA at EC90
Procedure: In Vitro LPA5 Receptor Assay
(§1) Engagement of the LPA5 receptor by its ligand, oleoyl-L-α-lysophosphatidic acid (LPA), leads to the release of intracellular stores of calcium into the cytoplasm mediated through a Gq-driven increase in inositol triphosphate (IP3) levels. Gq is a heterotrimeric G protein subunit that activates phospholipase C.
The ability of test compounds to prevent LPA-driven intracellular release of stored calcium from RH7777 cells expressing human LPA5 receptors was assayed by stimulating the cells with LPA in the presence of various test compounds to measure the test compounds'antagonism, i.e. activity in vitro.
(§2) Approximately 10,000 cells in normal culture medium (Minimal Essential Media, 10% Foetal Calf Serum) were dispensed per assay well in a black clear bottom poly-D-lysine coated 384 well plate (Corning). Cells were allowed to settle for thirty minutes at room temperature before being incubated overnight at 37° C., 5% CO2. Sixteen to twenty hours after dispensing, the cells were loaded with a calcium-sensitive fluorescent dye by replacing the culture medium with assay buffer (1× Hanks buffered saline, 25 mM HEPES, 0.1% w/v fatty acid free BSA (bovine serum albumin), pH7.4) containing 1.25 mM probenecid and 1× Calcium 5 Reagent (Molecular Devices). Cells were incubated at 37° C. for one hour to allow for dye uptake.
(§3) To test for antagonist activity, test compounds at a final concentration range between 0.32 nM-10 μM (diluted in assay buffer) were added to the assay wells and allowed to incubate for fifteen minutes. […] Ligand-dependent changes in intracellular calcium levels were determined by measuring changes in fluorescence of the dye over […] following excitation over […].

[2] = molecular target: human LPA1 receptors (Homo sapiens (Human), UniProt Q92633); assay: In vitro LPA1 receptor assay (LPA-driven intracellular calcium release, FLIPR); format: cell-based; conditions: RH7777 cells expressing human LPA1 receptors; LPA at EC80
Procedure: In Vitro LPA1 Receptor Assay
as §1, with “LPA1” for “LPA5”
The ability of test compounds to prevent LPA-driven intracellular release of stored calcium from RH7777 cells expressing human LPA1 receptors was assayed by stimulating the cells with LPA in the presence of various test compounds to measure the test compounds' antagonism, i.e. activity in vitro.
as §2, with “(Dulbecco's Modified Eagle” for “(Minimal Essential”, “collagen” for “poly-D-lysine”, “(Beckton Dickinson).” for “(Corning).”
as §3, with “twenty five” for “fifteen”

Sequence of LPA5 receptor (Q9H1C0 whole entry): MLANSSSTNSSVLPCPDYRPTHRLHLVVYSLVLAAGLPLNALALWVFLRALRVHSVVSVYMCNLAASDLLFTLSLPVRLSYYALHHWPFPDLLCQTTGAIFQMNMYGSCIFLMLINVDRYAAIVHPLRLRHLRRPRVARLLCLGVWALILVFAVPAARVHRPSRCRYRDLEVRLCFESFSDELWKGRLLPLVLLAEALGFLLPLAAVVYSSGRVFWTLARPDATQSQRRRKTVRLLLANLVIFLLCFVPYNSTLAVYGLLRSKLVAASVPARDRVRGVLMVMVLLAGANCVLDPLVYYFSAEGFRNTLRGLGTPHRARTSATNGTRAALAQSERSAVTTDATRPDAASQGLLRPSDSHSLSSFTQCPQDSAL
Sequence of human LPA1 receptors (Q92633 whole entry): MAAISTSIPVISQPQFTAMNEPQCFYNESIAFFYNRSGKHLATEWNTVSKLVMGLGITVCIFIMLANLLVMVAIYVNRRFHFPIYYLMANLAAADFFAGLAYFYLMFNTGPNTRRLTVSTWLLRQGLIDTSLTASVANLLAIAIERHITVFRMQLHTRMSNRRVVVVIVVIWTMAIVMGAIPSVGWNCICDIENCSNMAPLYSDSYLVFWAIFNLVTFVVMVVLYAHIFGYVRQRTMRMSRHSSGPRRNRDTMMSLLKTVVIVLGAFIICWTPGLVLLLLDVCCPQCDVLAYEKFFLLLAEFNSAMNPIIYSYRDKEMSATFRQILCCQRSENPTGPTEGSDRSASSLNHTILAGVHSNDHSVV

Row | IC50 [1] [nM] | IC50 [2] [nM] | SMILES
1 | 840 | – | CCN(Cc1ccc(C(=O)O)cc1)C(=O)c1ccc(Oc2ccccc2F)cc1 [Example 1, 4-((N-Ethyl-4-(2-fluorophenoxy)benzamido)methyl)benzoic acid]
2 | 140 | 130 | CCN(Cc1ccc(C(=O)O)cc1)C(=O)c1ccc(Oc2ccccc2Cl)cc1 [Example 76, 4-((4-(2-Chlorophenoxy)-N-ethylbenzamido)methyl)benzoic acid]
3 | 17 | – | O=C(O)c1ccc(CN(CC2CC2)C(=O)c2ccc(Oc3c(F)cccc3Cl)cc2)cc1 [Example 42, 4-((4-(2-Chloro-6-fluorophenoxy)-N-(cyclopropylmethyl)-benzamido)methyl)benzoic acid]
4 | 24 | – | O=C(O)c1ccc(CN(CC2CCC2)C(=O)c2ccc(Oc3ccccc3F)cc2)cc1 [Example 6, 4-((N-(Cyclobutylmethyl)-4-(2-fluorophenoxy)benzamido)-methyl)benzoic acid]
5 | 11 | – | O=C(O)c1ccc(CN(Cc2ccccc2)C(=O)c2ccc(Oc3c(F)cccc3Cl)cc2)cc1 [Example 44, 4-((N-Benzyl-4-(2-chloro-6-fluorophenoxy)benzamido)-methyl)benzoic acid]
6 | 58 | – | O=C(O)c1ccc(CN(CCC2CC2)C(=O)c2ccc(Oc3c(F)cccc3Cl)cc2)cc1 [Example 43, 4-((4-(2-Chloro-6-fluorophenoxy)-N-(2-cyclopropylethyl)-benzamido)methyl)benzoic acid]
7 | 370 | – | O=C(O)c1ccc(CN(CC2CCC2)C(=O)c2ccc(OCc3ccccc3F)cc2)cc1 [Example 52, 4-((N-(Cyclobutylmethyl)-4-((2-fluorobenzyl)oxy)benzamido)-methyl)benzoic acid]
8 | 89 | – | Cc1cccc(F)c1Oc1ccc(C(=O)N(Cc2ccc(C(=O)O)cc2)CC2CCC2)cc1 [Example 41, 4-((N-(Cyclobutylmethyl)-4-(2-fluoro-6-methylphenoxy)benzamido)methyl)benzoic acid]
9 | 53 | – | O=C(O)c1ccc(CN(CC2CC2)C(=O)c2ccc(OCc3ccccc3F)cc2)cc1 [Example 51, 4-((N-(Cyclopropylmethyl)-4-((2-fluorobenzyl)oxy)benzamido)-methyl)benzoic acid]
10 | 15 | – | O=C(O)c1ccc(CN(CCC2CC2)C(=O)c2ccc(Oc3ccccc3F)cc2)cc1 [Example 9, 4-((N-(2-Cyclopropylethyl)-4-(2-fluorophenoxy)benzamido)-methyl)benzoic acid]
11 | 48 | – | O=C(O)c1ccc(CN(CCC2CCC2)C(=O)c2ccc(Oc3ccccc3F)cc2)cc1 [Example 10, 4-((N-(2-Cyclobutylethyl)-4-(2-fluorophenoxy)benzamido)-methyl)benzoic acid]
12 | 31 | – | COC1CC(CN(Cc2ccc(C(=O)O)cc2)C(=O)c2ccc(Oc3ccccc3F)cc2)C1 (stereo not shown) [Example 7, 4-((4-(2-Fluorophenoxy)-N-((3-methoxycyclobutyl)methyl)-benzamido)methyl)benzoic acid]
13 | 7 | – | O=C(O)c1ccc(CN(CC2CC2)C(=O)c2ccc(Oc3ccccc3Cl)cc2)cc1 [Example 35, 4-((4-(2-Chlorophenoxy)-N-(cyclopropylmethyl)benzamido)-methyl)benzoic acid]
14 | 460 | – | CCOc1ccccc1Oc1ccc(C(=O)N(Cc2ccc(C(=O)O)cc2)CC2CC2)cc1 [Example 34, 4-((N-(Cyclopropylmethyl)-4-(2-ethoxyphenoxy)-benzamido)methyl)benzoic acid]

Continued, compound first:

Row | SMILES | IC50 [1] [nM] | IC50 [2] [nM]
15 | COc1ccccc1Oc1ccc(C(=O)N(CCC(F)(F)F)Cc2ccc(C(=O)O)cc2)cc1 [Example 64, 4-((4-(2-Methoxyphenoxy)-N-(3,3,3-trifluoropropyl)-benzamido)methyl)benzoic acid] | 7 | 9
16 | O=C(O)c1ccc(CN(C[C@H](O)Cc2ccccc2)C(=O)c2ccc(Oc3ccccc3F)cc2)cc1 [Example 20, (R)-4-((4-(2-Fluorophenoxy)-N-(2-hydroxy-3-phenylpropyl)-benzamido)methyl)benzoic acid] | 40 | 12
17 | O=C(O)c1ccc(CN(Cc2ccccc2)C(=O)C2CCC(Oc3ccccc3F)CC2)cc1 (stereo not shown) [Example 55, 4-((N-Benzyl-4-(2-fluorophenoxy)cyclohexanecarboxamido)-methyl)benzoic acid] | 690 | –
18 | COc1ccccc1Oc1ccc(C(=O)N(Cc2ccc(C(=O)O)cc2)CC(C)C)cc1 [Example 30, 4-((N-Isobutyl-4-(2-methoxyphenoxy)benzamido)methyl)benzoic acid] | 12 | 12
19 | O=C(O)c1ccc(CN(Cc2ccccc2F)C(=O)c2ccc(Oc3ccccc3F)cc2)cc1 [Example 12, 4-((N-(2-Fluorobenzyl)-4-(2-fluorophenoxy)benzamido)-methyl)benzoic acid] | 9 | –
20 | O=C(O)c1ccc(CN(CCCc2ccccc2F)C(=O)c2ccc(Oc3ccccc3F)cc2)cc1 [Example 16, 4-((4-(2-Fluorophenoxy)-N-(3-(2-fluorophenyl)propyl)benzamido)methyl)benzoic acid] | 1 | –
21 | COc1cccc(CN(Cc2ccc(C(=O)O)c(F)c2)C(=O)c2ccc(Oc3ccccc3F)cc2)c1 [Example 59, 2-Fluoro-4-((4-(2-fluorophenoxy)-N-(3-methoxybenzyl)benzamido)methyl)benzoic acid] | 6 | –
22 | O=C(O)c1ccc(CN(CCc2ccccc2)C(=O)c2ccc(Oc3ccccc3F)cc2)cc1 [Example 15, 4-((4-(2-Fluorophenoxy)-N-phenethylbenzamido)methyl)benzoic acid] | 120 | –
23 | N#Cc1ccccc1Oc1ccc(C(=O)N(Cc2ccccc2)Cc2ccc(C(=O)O)cc2)cc1 [Example 27, 4-((N-Benzyl-4-(2-cyanophenoxy)benzamido)methyl)benzoic acid] | 200 | –
24 | COc1ccc(Oc2ccc(C(=O)N(CCc3ccccc3)Cc3ccc(C(=O)O)cc3)cc2)cc1 [Example 49, 4-((4-(4-Methoxyphenoxy)-N-phenethylbenzamido)methyl)benzol acid] | 4600 | –
25 | O=C(O)c1ccc(CN(Cc2ccccc2)C(=O)c2ccc(Oc3c(F)cccc3F)cc2)cc1 [Example 39, 4-((N-Benzyl-4-(2,6-difluorophenoxy)benzamido)methyl)benzoic acid] | 11 | –
26 | O=C(O)c1ccc(CN(CCc2ccccc2)C(=O)c2ccc(Oc3ccccc3C(F)(F)F)cc2)cc1 [Example 26, 4-((N-Phenethyl-4-(2-(trifluoromethyl)phenoxy)benzamido)-methyl)benzoic acid] | 260 | –
27 | COc1ccccc1O[C@H]1CC[C@H](C(=O)N(Cc2ccccc2)Cc2ccc(C(=O)O)cc2)CC1 [Example 56, trans-4-((N-Benzyl-4-(2-methoxyphenoxy)cyclohexanecarboxamido)methyl)benzoic acid] | 180 | –
28 | O=C(O)c1ccc(CN(CCCCc2ccccc2)C(=O)c2ccc(Oc3ccccc3F)cc2)cc1 [Example 21, 4-((4-(2-Fluorophenoxy)-N-(4-phenylbutyl)-benzamido)methyl)benzoic acid] | 11 | –
29 | O=C(O)c1ccc(CN(Cc2ccccc2)C(=O)c2ccc(OCc3ccccc3F)cc2)cc1 [Example 53, 4-((N-Benzyl-4-((2-fluorobenzyl)oxy)benzamido)methyl)benzoic acid] | 58 | –
30 | Cc1ccccc1Oc1ccc(C(=O)N(Cc2ccc(C(=O)O)cc2)CC2CCC2)cc1 [Example 23, 4-((N-(Cyclobutylmethyl)-4-(o-tolyloxy)benzamido)methyl)benzoic acid] | 44 | –
31 | O=C(O)c1ccc(CN(CC(F)F)C(=O)c2ccc(Oc3ccccc3F)cc2)cc1 [Example 2, 4-((N-(2,2-Difluoroethyl)-4-(2-fluorophenoxy)benzamido)-methyl)benzoic acid] | 690 | –
32 | O=C(O)c1ccc(CN(CCc2ccccc2)C(=O)c2ccc(Oc3cccc(Cl)c3)cc2)cc1 [Example 50, 4-((4-(3-Chlorophenoxy)-N-phenethylbenzamido)methyl)benzoic acid] | 3600 | –
33 | COc1cccc(Oc2ccc(C(=O)N(CCc3ccccc3)Cc3ccc(C(=O)O)cc3)cc2)c1 [Example 48, 4-((4-(3-Methoxyphenoxy)-N-phenethylbenzamido)methyl)benzoic acid] | 3300 | –
